The record followed here is patent US10894784B2, “Heteroarylbenzimidazole compounds” (BAYER PHARMA AKTIENGESELLSCHAFT, priority 2015, dated 2021).

The target in this experiment is TBK1 (Homo sapiens (Human), UniProt Q9UHD2). Description: TBK1 low ATP kinase assay (in vitro assay 1). To be noted: in vitro assay 1, read-out: TBK1 low ATP kinase assay IC50. Format: biochemical.
Chain of TBK1 (Q9UHD2 whole entry): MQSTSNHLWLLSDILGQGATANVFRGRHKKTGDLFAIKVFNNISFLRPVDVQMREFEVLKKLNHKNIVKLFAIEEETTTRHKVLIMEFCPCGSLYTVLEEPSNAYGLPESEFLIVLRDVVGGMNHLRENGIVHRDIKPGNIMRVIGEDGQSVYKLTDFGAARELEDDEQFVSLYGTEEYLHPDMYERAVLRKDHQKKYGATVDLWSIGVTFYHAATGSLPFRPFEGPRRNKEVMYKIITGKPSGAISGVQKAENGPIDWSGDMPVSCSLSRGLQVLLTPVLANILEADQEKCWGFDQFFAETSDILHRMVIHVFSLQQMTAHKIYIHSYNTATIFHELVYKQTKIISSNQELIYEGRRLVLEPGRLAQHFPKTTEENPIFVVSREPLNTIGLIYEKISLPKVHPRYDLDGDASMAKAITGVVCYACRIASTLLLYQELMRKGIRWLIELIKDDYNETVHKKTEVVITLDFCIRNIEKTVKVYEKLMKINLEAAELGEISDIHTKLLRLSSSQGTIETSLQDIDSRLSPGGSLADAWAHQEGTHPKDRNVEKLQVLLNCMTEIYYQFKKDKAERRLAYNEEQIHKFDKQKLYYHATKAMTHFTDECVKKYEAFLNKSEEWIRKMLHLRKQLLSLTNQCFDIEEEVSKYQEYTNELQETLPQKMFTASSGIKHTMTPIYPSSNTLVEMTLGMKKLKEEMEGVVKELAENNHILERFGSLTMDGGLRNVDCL
As for `Cc1c[nH]c(-c2ccc3nc(Nc4cc(CN5CCN(C(=O)C6CC6)CC5)ccn4)[nH]c3c2)n1` [Example 43.02, cyclopropyl{4-[(2-{[6-(4-methyl-1H-imidazol-2-yl)-1H-benzimidazol-2-yl]amino}pyridin-4-yl)methyl]piperazin-1-yl}methanone], the IC50 came to 1840 nM.
Under `CC(C)(C)OC(=O)N1CCN(Cc2ccnc(Nc3nc4ccc(-c5cc(OCC6(C(F)(F)F)CC6)ncn5)cc4[nH]3)c2)CC1` [Example 158.01, tert-butyl 4-[(2-{[6-(6-{[1-(trifluoromethyl)cyclopropyl]methoxy}pyrimidin-4-yl)-1H-benzimidazol-2-yl]amino}pyridin-4-yl)methyl]piperazine-1-carboxylate] stands 160 nM; under `CCOc1c(-c2ccncc2OC)ccc2nc(Nc3cc(CN4CCN(C(=O)CC(F)(F)F)CC4)ccn3)[nH]c12` [Example 51.01, 1-{4-[(2-{[7-ethoxy-6-(3-methoxypyridin-4-yl)-1H-benzimidazol-2-yl]amino}pyridin-4-yl)methyl]piperazin-1-yl}-3,3,3-trifluoropropan-1-one], 148 nM; under `Cc1ncc(C)c(-c2ccc3nc(Nc4cc(CN5CCN(C(=O)C6CC6)CC5)ccn4)[nH]c3c2)n1` [Example 33.03, cyclopropyl{4-[(2-{[6-(2,5-dimethylpyrimidin-4-yl)-1H-benzimidazol-2-yl]amino}pyridin-4-yl)methyl]piperazin-1-yl}methanone], 1500 nM.
Turning to `O=C(CC(F)(F)F)N1CCN(Cc2ccnc(Nc3nc4ccc(-c5cnn(CC6CC6)c5)cc4[nH]3)c2)CC1` [Example 39.01.02, 1-(4-{[2-({6-[1-(cyclopropylmethyl)-1H-pyrazol-4-yl]-1H-benzimidazol-2-yl}amino)pyridin-4-yl]methyl}piperazin-1-yl)-3,3,3-trifluoropropan-1-one], the IC50 came to 5.89 nM.
The same measure for `Cn1ccc(-c2ccc3nc(Nc4cc(CN5CCN(C(=O)CC6CC6)CC5)ccn4)[nH]c3c2)n1` [Example 40.02, 2-cyclopropyl-1-{4-[(2-{[6-(1-methyl-1H-pyrazol-3-yl)-1H-benzimidazol-2-yl]amino}pyridin-4-yl)methyl]piperazin-1-yl}ethanone]: 1270 nM; for `CC(c1ccnc(Nc2nc3ccc(-c4cc(N5CCCC5)ncn4)cc3[nH]2)c1)N1CCN(C(=O)C2(C(F)(F)F)CC2)CC1` (single isomer, unassigned) [Example 117.04, (4-{(1R or 1S)-1-[2-({6-[6-(pyrrolidin-1-yl)pyrimidin-4-yl]-1H-benzimidazol-2-yl}amino)pyridin-4-yl]ethyl}piperazin-1-yl)[1-(trifluoromethyl)cyclopropyl]methanone]: 0.819 nM.
Under `CC(c1ccnc(Nc2nc3ccc(-c4cc(N5CCCC5)ncn4)cc3[nH]2)c1)N1CCN(C(=O)CC(F)(F)F)CC1` (single isomer, unassigned) [Example 117.03, 3,3,3-trifluoro-1-(4-{(1R or 1S)-1-[2-({6-[6-(pyrrolidin-1-yl)pyrimidin-4-yl]-1H-benzimidazol-2-yl}amino)pyridin-4-yl]ethyl}piperazin-1-yl)propan-1-one] stands 0.49 nM; under `O=C(CC(F)(F)F)N1CCN(Cc2ccnc(Nc3nc4ccc(-c5cc(N6CCOCC6)ncn5)cc4[nH]3)c2)CC1` [Example 94.01, 3,3,3-trifluoro-1-(4-{[2-({6-[6-(morpholin-4-yl)pyrimidin-4-yl]-1H-benzimidazol-2-yl}amino)pyridin-4-yl]methyl}piperazin-1-yl)propan-1-one], 7.2 nM; under `COc1c(-c2ccc3nc(Nc4cc(C(C)N5CCN(C(=O)C6CC6)CC5)ccn4)[nH]c3c2)ncnc1N1CC(F)(F)C1` (single isomer, unassigned) [Example 113.03, cyclopropyl(4-{(1R or 1S)-1-[2-({6-[6-(3,3-difluoroazetidin-1-yl)-5-methoxypyrimidin-4-yl]-1H-benzimidazol-2-yl}amino)pyridin-4-yl]ethyl}piperazin-1-yl)methanone], 1.1 nM.
Under `CN(CC(F)(F)F)c1cc(-c2ccc3nc(Nc4cc(CN5CCN(C(=O)OC(C)(C)C)CC5)ccn4)[nH]c3c2)ncn1` [Example 146.01, tert-butyl 4-({2-[(6-{6-[methyl(2,2,2-trifluoroethyl)amino]pyrimidin-4-yl}-1H-benzimidazol-2-yl)amino]pyridin-4-yl}methyl)piperazine-1-carboxylate] stands 14 nM; under `COc1c(-c2ccc3nc(Nc4cc(C(C)N5CCN(C(=O)C6(C(F)(F)F)CC6)CC5)ccn4)[nH]c3c2)ncnc1N(C)C` (single isomer, unassigned) [Example 107.02.04, (4-{(1R or 1S)-1-[2-({6-[6-(dimethylamino)-5-methoxypyrimidin-4-yl]-1H-benzimidazol-2-yl}amino)pyridin-4-yl]ethyl}piperazin-1-yl)[1-(trifluoromethyl)cyclopropyl]methanone], 5.2 nM; under `Cc1ncc(C)c(-c2ccc3nc(Nc4cc(CN5CCN(C(=O)C6CCC6)CC5)ccn4)[nH]c3c2)n1` [Example 33.04, cyclobutyl{4-[(2-{[6-(2,5-dimethylpyrimidin-4-yl)-1H-benzimidazol-2-yl]amino}pyridin-4-yl)methyl]piperazin-1-yl}methanone], 2120 nM.
With `CC(C)(C)OC(=O)N1CCN(Cc2ccnc(Nc3nc4ccc(-c5nc(C6CC6)no5)cc4[nH]3)c2)CC1` [Example 17.01, tert-butyl 4-[(2-{[6-(3-cyclopropyl-1,2,4-oxadiazol-5-yl)-1H-benzimidazol-2-yl]amino}pyridin-4-yl)methyl]piperazine-1-carboxylate], the IC50 amounted to 97.8 nM.
For the compound `N#Cc1cc(-c2ccc3nc(Nc4cc(CN5CCN(C(=O)CC(F)(F)F)CC5)ccn4)[nH]c3c2)ncn1` [Example 77.01, 6-{2-[(4-{[4-(3,3,3-trifluoropropanoyl)piperazin-1-yl]methyl}pyridin-2-yl)amino]-1H-benzimidazol-6-yl}pyrimidine-4-carbonitrile], the IC50 was determined as 9.2 nM.
Take `Cc1noc(-c2ccc3nc(Nc4cc(CN5C[C@@H](C)N(C(=O)CC(F)(F)F)C[C@@H]5C)ccn4)[nH]c3c2)n1` [Example 16.02.02, 1-{(2R,5S)-2,5-dimethyl-4-[(2-{[6-(3-methyl-1,2,4-oxadiazol-5-yl)-1H-benzimidazol-2-yl]amino}pyridin-4-yl)methyl]piperazin-1-yl}-3,3,3-trifluoropropan-1-one]: the IC50 came to 335 nM.
Under `COc1ccc(-c2ccc3nc(Nc4cc(CN5CCN(C(=O)C6CC6)CC5)ccn4)[nH]c3c2)cn1` [Example 13.02, cyclopropyl{4-[(2-{[6-(6-methoxypyridin-3-yl)-1H-benzimidazol-2-yl]amino}pyridin-4-yl)methyl]piperazin-1-yl}methanone] stands 166 nM; under `O=C(CC(F)(F)F)N1CCN(Cc2ccnc(Nc3nc4ccc(-c5ccnc(N6CCCC6)n5)cc4[nH]3)c2)CC1` [Example 177.02, 3,3,3-trifluoro-1-(4-{[2-({6-[2-(pyrrolidin-1-yl)pyrimidin-4-yl]-1H-benzimidazol-2-yl}amino)pyridin-4-yl]methyl}piperazin-1-yl)propan-1-one], 74.5 nM.
Under `CC(c1ccnc(Nc2nc3ccc(-c4cnn(CC5CC5)c4)c(Cl)c3[nH]2)c1)N1CCN(C(=O)CC(F)(F)F)CC1` (single isomer, unassigned) [Example 122.02, 1-(4-{(1R or 1S)-1-[2-({7-chloro-6-[1-(cyclopropylmethyl)-1H-pyrazol-4-yl]-1H-benzimidazol-2-yl}amino)pyridin-4-yl]ethyl}piperazin-1-yl)-3,3,3-trifluoropropan-1-one] stands 1.2 nM.
Under `Cc1noc(-c2ccc3nc(Nc4cc(CN5CCN(c6cccc(F)c6)CC5)ccn4)[nH]c3c2)n1` [Example 101.09, N-(4-{[4-(3-fluorophenyl)piperazin-1-yl]methyl}pyridin-2-yl)-6-(3-methyl-1,2,4-oxadiazol-5-yl)-1H-benzimidazol-2-amine] stands 460 nM.
Take `COc1ncccc1-c1ccc2nc(Nc3cc(CN4CCN(C(=O)CC(F)(F)F)CC4)ccn3)[nH]c2c1` [Example 15.01, 3,3,3-trifluoro-1-{4-[(2-{[6-(2-methoxypyridin-3-yl)-1H-benzimidazol-2-yl]amino}pyridin-4-yl)methyl]piperazin-1-yl}propan-1-one]: the concentration for half-maximal inhibition (IC50) was determined as 339 nM.
Under `O=C(CC(F)(F)F)N1CCN(Cc2ccnc(Nc3nc4ccc(-c5cc(NC6CCC6)ncn5)cc4[nH]3)c2)CC1` [Example 152.02, 1-(4-{[2-({6-[6-(cyclobutylamino)pyrimidin-4-yl]-1H-benzimidazol-2-yl}amino)pyridin-4-yl]methyl}piperazin-1-yl)-3,3,3-trifluoropropan-1-one] stands 0.48 nM.
Under `CN(C)c1ncnc(-c2ccc3nc(Nc4cc(CN5CCN(C(=O)CC(F)(F)F)CC5)ccn4)[nH]c3c2)c1F` [Example 162.02, 1-(4-{[2-({6-[6-(dimethylamino)-5-fluoropyrimidin-4-yl]-1H-benzimidazol-2-yl}amino)pyridin-4-yl]methyl}piperazin-1-yl)-3,3,3-trifluoropropan-1-one] stands 20 nM; under `COc1cncnc1-c1ccc2nc(Nc3cc(CN4CCN(S(=O)(=O)N5CC(C)OC(C)C5)CC4)ccn3)[nH]c2c1` (centres unmarked) [Example 35.01.18, N-[4-({4-[(2,6-dimethylmorpholin-4-yl)sulfonyl]piperazin-1-yl}methyl)pyridin-2-yl]-6-(5-methoxypyrimidin-4-yl)-1H-benzimidazol-2-amine], 41.8 nM; under `CC(c1ccnc(Nc2nc3ccc(-c4cnn(CC5CC(F)(F)C5)c4)cc3[nH]2)c1)N1CCN(C(=O)C2CC2)CC1` (single isomer, unassigned) [Example 169.03, cyclopropyl{4-[(1R or 1S)-1-{2-[(6-{1-[(3,3-difluorocyclobutyl)methyl]-1H-pyrazol-4-yl}-1H-benzimidazol-2-yl)amino]pyridin-4-yl}ethyl]piperazin-1-yl}methanone], 16.6 nM.
Take `Cc1cc(-c2ccc3nc(Nc4cc(CN5CCN(C(=O)C6CC6)CC5)ccn4)[nH]c3c2)ncn1` [Example 30.01.04, cyclopropyl{4-[(2-{[6-(6-methylpyrimidin-4-yl)-1H-benzimidazol-2-yl]amino}pyridin-4-yl)methyl]piperazin-1-yl}methanone]: the IC50 was 12.3 nM.
